Data set [1] has as its system rat cut-wound model. Briefly: Effect to heal cut wounds, wound closing tension. It is filed as in vivo. Conditions: 500 ng, 5 and 50 μg dropwise once a day, measured on Day 6. On the procedure:
Next, using rat cut-wound model, the effect of the polypeptides, SR-07 and SR-08, to heal cut wounds in vivo was evaluated. As described in Tetsuaki Yamaura et al. (Oyo Yakuri (Pharmacometrics) 22, 565-579 (1981)), the rat cut-wound model was produced and the wound closing tension was measured.
That is, a cut wound of 30 to 36 mm was made on the back of Crl:CD (SD) rats (male, 7-week old, obtained from Charles River Laboratories Japan, Inc.) using a safety razor, and sutured at 3 points equally spaced. The day when this surgical treatment was applied was regarded as […] (Day 0). Onto the suture site, 50 μL of each of the peptides which were test substances and were respectively prepared to the concentration of 10, 100 and 1000 μg/mL was added dropwise (the added amounts were 500 ng and 5 and 50 μg, respectively). Additions of 50 μL physiological saline were regarded as negative controls (Saline). Each peptide was added dropwise once a day till the day when the measurement of the wound closing tension was carried out. The sutures were removed on Day 3, and the wound closing tension was measured on Day 6.

Data set [2] deals with decubitus model, hairless rats. Briefly: Healing effect on decubituses. It is filed as in vivo, rat. Conditions: 0.2 μg/uL (4 μg/wound). How it is done: In order to confirm the healing effect on a decubitus, one of skin ulcers, a decubitus model was produced using 7-week old male hairless rats (HWY/slc), and the healing effect of the polypeptides of the present invention was examined. A pair of magnets (φ10×5 mm; available from AZBIO KENIS; rare earth magnets; Type: KD-2; Code: 3-118-119; and, Magnetic Flux Density: 350 mT) was contacted to the skin of the back of each rat for 8 hours to induce a decubitus. On the day after inducing the decubitus, the necrotic skin was surgically removed to obtain a decubitus model. After producing the decubitus model, the test substance was administered onto the wound site, and a covering was used to cover over that (Day 0). Only a covering was used in the Control. Thereafter, on every measurement day, the test substance was administered once a day, and the change of the area of the wound was measured by calculating measured values from a digital caliper and digital images. The concentration of the test substances were individually 0.2 μg/uL (4 μg/wound). The area where the burns had still not healed was measured to calculate the ratio of it relative to the area where the burns were created (Day 0).

The test system of data set [3] is Normal human dermal fibroblasts (NHDFs). Briefly: Collagen production test. It is filed as cell-based. Conditions: 5-day culture. On the procedure: Normal human dermal fibroblasts (NHDFs) were plated in a 48-well plate. As a medium, Medium 106 containing 1% FBS was used. After culturing in an incubator at 37° C. under 5% CO2 for about 3 hours, the peptide or FGFb (Positive Control), which had been diluted with the medium to each concentration, was added, and the culturing was further continued. The medium was replaced with a medium containing the same additive on Day 3, and the culturing was continued for another 2 days.
The amount of produced collagen was measured by using Semi-Quantitative Collagen Assay Kit.
After the 5-day culture, the medium was removed by aspiration, and the cells were washed with cold PBS(−). Cold methanol/ethanol was added thereto and the plate was left to stand for 10 minutes at room temperature to fix the cells. The cells were washed twice with cold PBS(−). Then, a staining solution (Dye Solution) was added to each well, and the plate was left to stand at room temperature for 30 minutes. The staining solution was removed, and the cells were washed 4-5 times with deionized water. An extraction solution (Dye Extraction Solution) was added to each well to extract the dye, and the absorbances of the extract at 540 nm and 605 nm were measured.
The amounts of collagen and noncollagen proteins were calculated according to the following equation. […]

The test system of data set [4] is Pseudomonas aeruginosa (clinical strain 9). Briefly: MIC measurement, broth microdilution. The note with it: 37° C. for 20 hours; tested twice, first/second value where not matched. It is filed as cell-based. (In general: Dilution methods test growth across graded concentrations, often in twofold steps.)
Data set [5] deals with MSSA (clinical strain 1). The data set can be described thus: microbe, parasite or virus in culture. The note with it: 37° C. for 20 hours; tested twice, first/second value where not matched. It is filed as cell-based, Staphylococcus aureus. How it is done: (§1) Further, with respect to not only the above-described strains but also various other strains, the “minimum inhibitory concentration (MIC)” was measured as follows. MIC is the lowest concentration of an agent that may inhibit the growth of a bacterium. MIC is used as a parameter for the efficacy of an antibacterial agent, for the strength of bacterial sensitivity, or the like. The bacteria can grow (proliferate) when the concentration is not higher than MIC, and cannot grow when the concentration is higher than MIC. Its measurement is carried out according to a method defined as a standard method by Japanese Society of Chemotherapy or CLINICAL AND LABORATORY […] (CLSI), but, in this Example, its measurement was carried out by a broth microdilution method in accordance with “M100-S17/M7-A7” (Performance Standards for Antimicrobial Susceptibility Testing; Seventeenth Informational Supplement, Vol. 27 No. 1) published by CLSI on January, 2007. That is, sensitivity test of agents was carried out using a microtiter plate or test tubes.
(§2) The bacteria were cultured in liquid media for 4 to 6 hours, and thereafter absorbances at A600 were measured. Bacterial suspensions were diluted with Mueller-Hinton broth (MHB) according to McFarland #0.5. Each strain was added so as to attain about 10^5 CFU/ml (final concentration). Each peptide was prepared to an optional concentration, and the solutions were serially diluted from the concentration. The polypeptide at each concentration stage was added to a microplate or test tubes, and the bacterial suspension was added thereto. Chloramphenicol, amphotericin B, ciprofloxacin, meropenem (MEPM), ciprofloxacin (CPFX), tobramycin (TOB) and oxacillin (OX) were used as positive controls. The plate was incubated at 37° C. for 20 hours, and the lowest concentration where bacterial growth was inhibited was regarded as the minimum inhibitory concentration.

In data set [6] the test system is Fusarium solani. It is filed as cell-based. The note with it: 37° C. for 20 hours; tested twice, first/second value where not matched. How it is done:
as §1, §2

In data set [7] the test system is Trichophyton rubrum. It is filed as cell-based. The note with it: 37° C. for 20 hours; tested twice, first/second value where not matched. How it is done:
as §1, §2

A short description of data set [8]: Stability in rat serum (HPLC). It is filed as in vitro ADME. Conditions: 37° C. On the procedure: The stability of the polypeptides in serum was evaluated. In human serum (purchased from KAC Co., Ltd.), or in rat serum obtained by collecting blood from a rat, then leaving the collected blood to stand at room temperature followed by centrifugation, each of the peptides was dissolved so as to attain a final concentration of 500 μg/mL, and the obtained solutions were left to stand at 37° C. After leaving to stand for 3 min or 10 min, these solutions were subjected to HPLC chromatogram analysis to detect peaks of the decomposition products, and calculate the ratio of the concentration of the peptides which remained in the solutions relative to the starting concentration. In addition, the half-lives of the peptides in serum were also calculated.

Where a SMILES comes first, the peptide text is derived from it. [ ]: non-standard residue; d: D form.

Data on one compound can be found in US9695219B2, “Polypeptide having antibacterial activity and angiogenesis-inducing activity and wound-healing drug containing said polypeptide” (priority 2009, dated 2017).

A word on the half-life: it is the time needed for the level to fall by half in the phase considered. Lower therefore signals fast loss. Take `CC[C@H](C)[C@H](NC(=O)[C@H](CC(C)C)NC(=O)[C@H](CCCCN)NC(=O)[C@@H](N)CC(C)C)C(=O)N[C@@H](Cc1ccccc1)C(=O)N[C@@H](CC(C)C)C(=O)N[C@@H](Cc1c[nH]cn1)C(=O)N[C@@H](CCCNC(=N)N)C(=O)N[C@@H](CC(C)C)C(=O)N[C@@H](CCCCN)C(=O)N[C@@H](CCCNC(=N)N)C(=O)N[C@@H](CCSC)C(=O)N[C@@H](CCCNC(=N)N)C(=O)N[C@@H](CCCCN)C(=O)N[C@@H](CCCNC(=N)N)C(=O)N[C@@H](CC(C)C)C(=O)N[C@H](CCCCN)C(=O)N[C@@H](CCCNC(=N)N)C(=O)N[C@@H](CCCCN)C(N)=O` [SR-08] (H-LKLIFLHRLKRMRKRL[dK]RK-NH2; N-terminus assumed): in data set [1], the “Wound closing tension (FIGS. 7 and 8)” value is “the wound closing tension tended to be increased”. The “Healing effect on decubitus (unhealed area ratio, FIGS. 16 and 17)” value in data set [2] (once a day) is reported as “showed a therapeutic effect also in decubituses”. The “Ratio of remaining wound area on Day 12, Mean Value” in data set [2] (decubitus model, Day 12, Control Group 4.516729) is on record as 0.7902. Moreover, the “Collagen production of fibroblasts (FIG. 2)” value in data set [3] is “had an effect to induce collagen production of the fibroblasts”. Moreover, in data set [4], the “MIC, Pseudomonas aeruginosa (clinical strain 9)” value is 16/64. Moreover, the “MIC, MSSA (clinical strain 1)” value in data set [5] is reported as 16/32. Further, the “MIC, Fusarium solani” value in data set [6] is listed as 4/8. Further, in data set [7], the “MIC, Trichophyton rubrum” value was 128/64. Also, the “Ratio of peptide remaining relative to the starting concentration, rat serum, 0 min” value in data set [8] (500 μg/mL, 0 min) was 100. In data set [8] (rat, rat serum, 3 min, read-out: Ratio of peptide remaining relative to the starting concentration, rat serum, 3 min), the remaining at 0.05 h, 500 μg/mL turned out to be 87%. In data set [8] (rat, rat serum, 10 min, read-out: Ratio of peptide remaining relative to the starting concentration, rat serum, 10 min), the remaining at 10 min, 500 μg/mL is 86.9%. The half-life in data set [8] (rat, serum, 500 μg/mL) turned out to be 1 h.
